Reference: publication PMC4723341, “Ribonuclease H/DNA Polymerase HIV-1 Reverse Transcriptase Dual Inhibitor: Mechanistic Studies on the Allosteric Mode of Action of Isatin-Based Compound RMNC6” (PLoS ONE, 2016)
Where “and” joins values, the source holds several entries; their conditions need not be identical. Equal entries are not always repeated. Where two headings read alike, the source gives them in different places.

Legend:
[1] = molecular target: HIV-1 RT-associated RNase H activity, HIV-1 group O RT (Human immunodeficiency virus type 1 group O, UniProt Q79666); test: RNase H activity assay, HIV-1 group O RT; format: biochemical; conditions: for IC50: Group O RT; for Fold increase in RNase H IC50 in comparison with wild-type HIV-1 group M subtype B RT: HIV-1 group O RT
Description: Recombinant HIV-1 group O RT was expressed and purified as previously described. It was obtained as a heterodimer composed of subunits of 66 and 51 kDa, with a polyhistidine tag at the C-terminus of p66. For this purpose, the RT p66 subunit encoded within a p66RTB expression vector was co-expressed with the HIV-1 protease in E. coli XL-1 Blue, and the obtained heterodimers were then purified by ionic exchange followed by chromatography on Ni2+-nitriloacetic acid agarose. The enzyme was quantified by active site titration before biochemical studies.
(§1) HIV RT-associated RNase H activity was measured as described in 100 μL reaction volume containing 50 mM Tris-HCl buffer pH 7.8, 6 mM MgCl2, 1 mM dithiothreitol (DTT), 80 mM KCl, 0.25 μM hybrid RNA/DNA 5'-[…]-Fluorescin-3' (HPLC, dry, QC: Mass Check) (available from Metabion) 5'-Dabcyl-[…]-3'(HPLC, dry, QC: Mass Check), increasing concentrations of inhibitors, whose dilution were made in water, and different amount of enzymes according to a linear range of dose-response curve: 20 ng of WT RT; 60 ng K103N RT; 37.5 ng V106A RT; 75 ng V108A RT; 5 ng Y181C RT; 50 ng Y188A RT; 30 ng Y188L RT; 100 ng E224A RT; 37.5 ng P225A RT; 20 ng P226A RT; 18 ng F227A RT; 30 ng L228A RT; 30 ng W229A RT; 10 ng M230A RT; 30 ng G231A RT; 62.5 ng N474A RT; 1 μg Y501A RT; 100 ng A502F RT; 37.5 ng A508V RT; 38 ng HIV-1 group O RT. The reaction mixture was incubated for 1 h at 37°C, stopped by addition of EDTA and products were measured with a multilabel counter plate reader Victor 3 (Perkin Elmer model 1420–051) equipped with filters for 490/528 nm (excitation/emission wavelength)

[2] = molecular target: T1, HIV-1 RT-associated RNase H activity, F227A RT (Human immunodeficiency virus type 1 group M subtype B, UniProt P04585, F814A); test: RNase H activity assay, F227A RT; format: biochemical, HIV-1 group M subtype B
T1 construct: The 1:1 ration between the p66/p51 subunits was also verified; made in house; host or cells: E. coli M15
Procedure: (§2) HIV RT-associated RNase H activity was measured as described in 100 μL reaction volume containing 50 mM Tris-HCl buffer pH 7.8, 6 mM MgCl2, 1 mM dithiothreitol (DTT), 80 mM KCl, 0.25 μM hybrid RNA/DNA 5'-GAUCUGAGCCUGGGAGCU-Fluorescin-3' (HPLC, dry, QC: Mass Check) (available from Metabion) 5'-Dabcyl-AGCTCCCAGGCTCAGATC-3'(HPLC, dry, QC: Mass Check), increasing concentrations of inhibitors, whose dilution were made in water, and different amount of enzymes according to a linear range of dose-response curve: 20 ng of WT RT; 60 ng K103N RT; 37.5 ng V106A RT; 75 ng V108A RT; 5 ng Y181C RT; 50 ng Y188A RT; 30 ng Y188L RT; 100 ng E224A RT; 37.5 ng P225A RT; 20 ng P226A RT; 18 ng F227A RT; 30 ng L228A RT; 30 ng W229A RT; 10 ng M230A RT; 30 ng G231A RT; 62.5 ng N474A RT; 1 μg Y501A RT; 100 ng A502F RT; 37.5 ng A508V RT; 38 ng HIV-1 group O RT. The reaction mixture was incubated for 1 h at 37°C, stopped by addition of EDTA and products were measured with a multilabel counter plate reader Victor 3 (Perkin Elmer model 1420–051) equipped with filters for 490/528 nm (excitation/emission wavelength)

[3] = tested on: HIV-1 RT-associated RNase H activity, F227A RT; test: RNase H activity assay, F227A RT; format: biochemical, HIV-1 group M subtype B; conditions: F227A RT
Procedure: as §2

[4] = tested on: HIV-1 RT-associated RNase H activity, P226A RT; test: RNase H activity assay, P226A RT; format: biochemical, HIV-1 group M subtype B; conditions: P226A RT
Procedure: as §2

[5] = molecular target: T2, HIV-1 RT-associated RNase H activity, A502F RT (Human immunodeficiency virus type 1 group M subtype B, UniProt P04585, A1089F); test: RNase H activity assay, A502F RT; format: biochemical, HIV-1 group M subtype B; conditions: for Fold of increase of RNase H IC50 with respect to wt RT: A502F RT
T2 construct: The 1:1 ration between the p66/p51 subunits was also verified; made in house; host or cells: E. coli M15
Procedure: as §2

[6] = molecular target: T3, HIV-1 RT-associated RNase H activity, wt RT (Human immunodeficiency virus type 1 group M subtype B, UniProt P04585); test: biochemical; parameters: species or system HIV-1 group M subtype B
T3 construct: The 1:1 ration between the p66/p51 subunits was also verified; made in house; host or cells: E. coli M15
Procedure: as §2

[7] = tested on: HIV-1 RT-associated RNase H activity, G231A RT; test: RNase H activity assay, G231A RT; format: biochemical, HIV-1 group M subtype B; conditions: G231A RT
Procedure: as §2

[8] = molecular target: T4, HIV-1 RT-associated RNase H activity, G231A RT (Human immunodeficiency virus type 1 group M subtype B, UniProt P04585, G818A); test: RNase H activity assay, G231A RT; format: biochemical, HIV-1 group M subtype B
T4 construct: The 1:1 ration between the p66/p51 subunits was also verified; made in house; host or cells: E. coli M15
Procedure: as §2

[9] = molecular target: T5, HIV-1 RT-associated RNase H activity, A508V RT (Human immunodeficiency virus type 1 group M subtype B, UniProt P04585, A1095V); test: RNase H activity assay, A508V RT; format: biochemical, HIV-1 group M subtype B; conditions: for Fold of increase of RNase H IC50 with respect to wt RT: A508V RT
T5 construct: The 1:1 ration between the p66/p51 subunits was also verified; made in house; host or cells: E. coli M15
Procedure: as §2

[10] = molecular target: T6, HIV-1 RT-associated RNase H activity, N474A RT (Human immunodeficiency virus type 1 group M subtype B, UniProt P04585, N1061A); test: biochemical; format: biochemical, HIV-1 group M subtype B
T6 construct: The 1:1 ration between the p66/p51 subunits was also verified; made in house; host or cells: E. coli M15
Procedure: as §1

[11] = molecular target: T7, HIV-1 RT-associated RNase H activity, Y501A RT (Human immunodeficiency virus type 1 group M subtype B, UniProt P04585, Y1088A); test: biochemical; format: biochemical, HIV-1 group M subtype B
T7 construct: The 1:1 ration between the p66/p51 subunits was also verified; made in house; host or cells: E. coli M15
Procedure: as §1

[12] = molecular target: T8, HIV-1 RT-associated RNase H activity, Y188L RT (Human immunodeficiency virus type 1 group M subtype B, UniProt P04585, Y775L); test: RNase H activity assay, Y188L RT; format: biochemical, HIV-1 group M subtype B
T8 construct: The 1:1 ration between the p66/p51 subunits was also verified; made in house; host or cells: E. coli M15
Procedure: as §2

## CC(C)c1ccc(O)c(=O)c(O)c1 [BTP, β-thujaplicinol, reference compound]
[1]
  IC50: 910 ± 10 nM
  Fold increase in RNase H IC50 in comparison with wild-type HIV-1 group M subtype B RT: 5 to 6.5
[2]
  IC50: 220 ± 40 nM
[3]
  Fold of increase of RNase H IC50 with respect to wt RT: 1.2
[4]
  Fold of increase of RNase H IC50 with respect to wt RT: 1.5
[5]
  IC50: 170 ± 30 nM
  Fold of increase of RNase H IC50 with respect to wt RT: 0.9
[6]
  IC50: 190 ± 30 nM
[7]
  Fold of increase of RNase H IC50 with respect to wt RT: 1.3
[8]
  IC50: 250 ± 30 nM
[9]
  IC50: 160 ± 50 nM
  Fold of increase of RNase H IC50 with respect to wt RT: 0.8
[10]
  IC50: 920 ± 10 nM
[10]; N474A RT
  Fold of increase of RNase H IC50 with respect to wt RT: 4.8
[11]
  IC50: 70 ± 2 nM
[11]; Y501A RT
  Fold of increase of RNase H IC50 with respect to wt RT: 0.4
[12]; Y188L RT, read-out: IC50 RNase H
  IC50: 80 ± 50 nM

## N#Cc1ccc(-c2csc(NN=C3C(=O)Nc4ccccc43)n2)cc1 [RMNC6, (Z)-4-(2-(2-(2-oxoindolin-3-ylidene)hydrazinyl)thiazol-4-yl)benzonitrile]
[1]
  IC50: 8500 ± 2600 nM
  Fold increase in RNase H IC50 in comparison with wild-type HIV-1 group M subtype B RT: 6.5 and 5 to 6.5
[2]
  IC50: 700 ± 100 nM
[3]
  Fold of increase of RNase H IC50 with respect to wt RT: 0.5
[4]
  Fold of increase of RNase H IC50 with respect to wt RT: 1.5
[5]
  IC50: 13000 ± 700 nM
  Fold of increase of RNase H IC50 with respect to wt RT: 10.0
[6]
  IC50: 1300 ± 300 nM
[7]
  Fold of increase of RNase H IC50 with respect to wt RT: 1.3
[8]
  IC50: 1700 ± 400 nM
[9]
  IC50: 6500 ± 700 nM
  Fold of increase of RNase H IC50 with respect to wt RT: 5.0
[10]
  IC50: > 100000 nM
[10]; N474A RT
  Fold of increase of RNase H IC50 with respect to wt RT: > 77
  Resistance of RNase H function: full resistance
[11]
  IC50: > 100000 nM
[11]; Y501A RT
  Fold of increase of RNase H IC50 with respect to wt RT: > 77
  Resistance of RNase H function: full resistance
[12]
  IC50: 1600 ± 500 nM
